Assay results: ChEMBL document CHEMBL4828709, “Discovery of 2,4-pyrimidinediamine derivatives as potent dual inhibitors of ALK and HDAC” (Eur J Med Chem, 2021)

Key:
[1] = target: T1, ALK tyrosine kinase receptor (Homo sapiens, UniProt Q9UM73); experiment: Inhibition of ALK (unknown origin) at 100 nM preincubated for 10 mins followed by addition of substrate and ATP for 25 mins by caliper EZ reader method; conditions: time 35.0 min
[2] = target: T1, ALK tyrosine kinase receptor; experiment: Inhibition of ALK (unknown origin) at 10 nM preincubated for 10 mins followed by addition of substrate and ATP for 25 mins by caliper EZ reader method; conditions: time 35.0 min
Histone deacetylase 1 [3] = target: T2, Histone deacetylase 1 (Homo sapiens, UniProt Q13547); conditions: Sf9, dose 100.0 nM, time 15.0 min
Histone deacetylase 1 [4] = target: T2, Histone deacetylase 1; conditions: Sf9, dose 10.0 nM, time 15.0 min

T2 sequence (Q13547 whole entry): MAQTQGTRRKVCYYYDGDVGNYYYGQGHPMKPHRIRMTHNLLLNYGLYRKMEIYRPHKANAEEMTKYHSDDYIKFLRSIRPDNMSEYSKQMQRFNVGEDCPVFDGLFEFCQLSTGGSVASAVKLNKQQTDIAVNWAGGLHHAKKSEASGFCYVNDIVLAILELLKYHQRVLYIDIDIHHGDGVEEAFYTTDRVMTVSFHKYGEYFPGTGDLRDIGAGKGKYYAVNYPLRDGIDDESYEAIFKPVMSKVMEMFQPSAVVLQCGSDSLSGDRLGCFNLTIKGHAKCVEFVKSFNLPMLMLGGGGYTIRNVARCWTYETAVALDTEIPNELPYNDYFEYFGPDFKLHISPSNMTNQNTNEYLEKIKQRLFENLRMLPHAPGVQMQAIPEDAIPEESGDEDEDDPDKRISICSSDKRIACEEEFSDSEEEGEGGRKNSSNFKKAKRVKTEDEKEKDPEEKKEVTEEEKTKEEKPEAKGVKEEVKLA
T1 sequence (Q9UM73 19-1620 limits assumed): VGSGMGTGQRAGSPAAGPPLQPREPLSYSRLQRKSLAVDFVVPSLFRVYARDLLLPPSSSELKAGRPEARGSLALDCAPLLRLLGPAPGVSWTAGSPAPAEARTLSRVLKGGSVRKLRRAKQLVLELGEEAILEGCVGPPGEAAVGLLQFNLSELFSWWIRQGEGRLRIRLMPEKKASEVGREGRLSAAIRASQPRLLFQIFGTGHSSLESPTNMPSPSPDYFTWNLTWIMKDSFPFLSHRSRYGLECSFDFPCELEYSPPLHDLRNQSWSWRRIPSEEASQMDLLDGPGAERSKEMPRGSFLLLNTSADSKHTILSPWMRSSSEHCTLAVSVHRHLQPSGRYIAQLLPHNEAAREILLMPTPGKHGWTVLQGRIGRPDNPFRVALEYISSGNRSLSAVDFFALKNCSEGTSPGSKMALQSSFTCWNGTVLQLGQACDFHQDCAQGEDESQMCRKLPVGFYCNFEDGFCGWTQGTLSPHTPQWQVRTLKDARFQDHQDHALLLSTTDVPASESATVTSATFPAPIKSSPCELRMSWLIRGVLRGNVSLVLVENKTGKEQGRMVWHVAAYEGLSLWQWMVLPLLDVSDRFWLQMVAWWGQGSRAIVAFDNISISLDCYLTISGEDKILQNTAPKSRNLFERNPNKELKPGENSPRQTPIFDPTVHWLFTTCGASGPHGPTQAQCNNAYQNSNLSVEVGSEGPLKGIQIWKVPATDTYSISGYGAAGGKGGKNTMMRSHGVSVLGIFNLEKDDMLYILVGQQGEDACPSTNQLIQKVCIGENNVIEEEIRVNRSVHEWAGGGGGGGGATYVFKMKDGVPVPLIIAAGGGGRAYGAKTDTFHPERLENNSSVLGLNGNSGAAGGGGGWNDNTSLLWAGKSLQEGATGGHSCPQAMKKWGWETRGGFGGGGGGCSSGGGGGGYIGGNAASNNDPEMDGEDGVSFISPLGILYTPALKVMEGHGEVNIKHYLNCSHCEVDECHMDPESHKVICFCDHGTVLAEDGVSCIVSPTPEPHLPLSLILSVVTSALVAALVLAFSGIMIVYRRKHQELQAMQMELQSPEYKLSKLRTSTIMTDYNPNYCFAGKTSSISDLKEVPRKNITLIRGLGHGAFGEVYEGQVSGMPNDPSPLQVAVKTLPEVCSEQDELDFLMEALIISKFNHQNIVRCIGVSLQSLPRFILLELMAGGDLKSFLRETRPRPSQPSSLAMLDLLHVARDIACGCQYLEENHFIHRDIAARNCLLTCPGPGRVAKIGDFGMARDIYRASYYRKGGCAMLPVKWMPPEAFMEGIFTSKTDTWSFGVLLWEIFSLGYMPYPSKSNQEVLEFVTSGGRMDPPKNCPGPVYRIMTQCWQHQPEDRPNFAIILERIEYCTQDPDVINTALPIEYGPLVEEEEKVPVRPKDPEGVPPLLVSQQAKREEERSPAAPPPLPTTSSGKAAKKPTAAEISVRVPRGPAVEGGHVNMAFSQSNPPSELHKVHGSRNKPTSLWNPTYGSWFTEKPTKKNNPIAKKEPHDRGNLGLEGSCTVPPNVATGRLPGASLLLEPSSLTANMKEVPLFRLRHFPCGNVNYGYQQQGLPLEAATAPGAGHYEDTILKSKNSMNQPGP

| Compound | inhibition [1] [%] | inhibition [2] [%] | inhibition (Histone deacetylase 1 [3]) [%] | inhibition (Histone deacetylase 1 [4]) [%] |
| --- | --- | --- | --- | --- |
| Cc1cccc(Nc2nc(Nc3ccc(NC(=O)CCCCCCC(=O)NO)cc3)ncc2Cl)c1 | 4.9 | 0.2 |  |  |
| CC(C)S(=O)(=O)c1ccccc1Nc1nc(Nc2cccc(NC(=O)CCCCC(=O)NO)c2)ncc1Cl | 98 | 87.2 | 41 | 10 |
| Cc1cc(Nc2ncc(Cl)c(Nc3ccccc3S(=O)(=O)C(C)C)n2)ccc1C(=O)NCCCCCCC(=O)NO | 101 | 98.1 | 78 | 35 |
| Cc1ccc(Nc2ncc(Cl)c(Nc3ccccc3S(=O)(=O)C(C)C)n2)cc1NC(=O)CCCCC(=O)NO | 98.5 | 76.9 | 39 | 8 |
| Cc1ccc(Nc2nc(Nc3ccc(NC(=O)CCCCCCC(=O)NO)cc3)ncc2Cl)cc1 | 30.1 | 7.2 | 97 | 86 |
| Cc1cc(Nc2ncc(Cl)c(Nc3ccccc3S(=O)(=O)C(C)C)n2)ccc1C(=O)NCCCCCC(=O)NO | 102 | 97.8 | 93 | 48 |
| CC(C)S(=O)(=O)c1ccccc1Nc1nc(Nc2cccc(C(=O)NO)c2)ncc1Cl |  |  |  | -3 |
| COc1cnc(Nc2ccc(NC(=O)CCCCCCC(=O)NO)cc2)nc1Nc1ccccc1S(=O)(=O)C(C)C | 94.9 | 60.4 | 91 | 68 |
| Cc1ccccc1Nc1nc(Nc2ccc(NC(=O)CCCCCCC(=O)NO)cc2)ncc1Cl | 27.8 | 1.2 | 99 | 91 |
| CC(C)S(=O)(=O)c1ccccc1Nc1nc(Nc2ccc(NC(=O)CCCC(=O)NO)cc2)ncc1Cl | 98.5 | 87.6 | 17 | 4 |
| COc1cc(C(=O)NCCCCCC(=O)NO)ccc1Nc1ncc(Cl)c(Nc2ccccc2S(=O)(=O)C(C)C)n1 | 98.5 | 97.3 | 86 | 45 |
| CC(C)S(=O)(=O)c1ccccc1Nc1nc(Nc2ccc(NC(=O)CC(=O)NO)cc2)ncc1Cl | 98.2 | 92.1 | -7 | -10 |
| O=C(CCCCCCC(=O)Nc1ccc(Nc2ncc(Cl)c(Nc3ccccc3Br)n2)cc1)NO | 25 | 0.2 | 88 | 67 |
| CC(C)S(=O)(=O)c1ccccc1Nc1nc(Nc2ccc(C(=O)NCCCCCC(=O)NO)cc2)ncc1Cl | 98.1 | 89.4 | 101 | 55 |
| CC(C)S(=O)(=O)c1ccccc1Nc1nc(Nc2cccc(C(=O)NCCC(=O)NO)c2)ncc1Cl | 99.1 | 81 | 4 | -1 |
| COc1cc(Nc2ncc(Cl)c(Nc3ccccc3S(=O)(=O)C(C)C)n2)ccc1C(=O)NCCCCCC(=O)NO | 101 | 99 | 74 | 26 |
| COc1ccc(Nc2nc(Nc3ccc(NC(=O)CCCCCCC(=O)NO)cc3)ncc2Cl)cc1OC | 17.6 | 3.1 | 94 | 65 |
| CC(C)S(=O)(=O)c1ccccc1Nc1nc(Nc2ccc(C(=O)NCCCCCC(=O)NO)c(Cl)c2)ncc1Cl | 97.8 | 87.7 | 93 | 45 |
| CC(C)S(=O)(=O)c1ccccc1Nc1nc(Nc2cccc(C(=O)NCCCCC(=O)NO)c2)ncc1Cl | 97.7 | 81 | 65 | 23 |
| COc1ccc(C)c(Nc2nc(Nc3ccc(NC(=O)CCCCCCC(=O)NO)cc3)ncc2Cl)c1 | 4.9 | -0.7 |  |  |
| O=C(CCCCCCC(=O)Nc1ccc(Nc2ncc(Cl)c(Nc3ccccc3)n2)cc1)NO | 36.9 | 4.9 | 99 | 84 |
| CC(C)S(=O)(=O)c1ccccc1Nc1nc(Nc2cccc(C(=O)NCCCC(=O)NO)c2)ncc1Cl | 98 | 85.7 | 44 | 4 |

The remaining lines, values ahead:

| inhibition [1] [%] | inhibition [2] [%] | inhibition (Histone deacetylase 1 [3]) [%] | inhibition (Histone deacetylase 1 [4]) [%] | Compound |
| --- | --- | --- | --- | --- |
| 98.1 | 87 | 83 | 38 | CC(C)S(=O)(=O)c1ccccc1Nc1nc(Nc2cccc(NC(=O)CCCC(=O)NO)c2)ncc1Cl |
| 96.6 | 82.6 | 84 | 41 | CC(C)S(=O)(=O)c1ccccc1Nc1nc(Nc2cccc(C(=O)NCCCCCCC(=O)NO)c2)ncc1Cl |
| 20 | 1.2 | 97 | 83 | COc1cccc(Nc2nc(Nc3ccc(NC(=O)CCCCCCC(=O)NO)cc3)ncc2Cl)c1 |
| 97.3 | 93.1 | 96 | 58 | Cc1cc(C(=O)NCCCCCC(=O)NO)ccc1Nc1ncc(Cl)c(Nc2ccccc2S(=O)(=O)C(C)C)n1 |
|  |  |  | -2 | CC(C)S(=O)(=O)c1ccccc1Nc1nc(Nc2ccc(NC(=O)CCC(=O)NO)cc2)ncc1Cl |
| 98 | 89.4 | 86 | 55 | CC(C)S(=O)(=O)c1ccccc1Nc1nc(Nc2cccc(NC(=O)CCCCCC(=O)NO)c2)ncc1Cl |
| 99 | 84.7 | 20 | -8 | CC(C)S(=O)(=O)c1ccccc1Nc1nc(Nc2ccc(NC(=O)CCCCC(=O)NO)cc2)ncc1Cl |
| 97.9 | 91.2 | 4 | -2 | CC(C)S(=O)(=O)c1ccccc1Nc1nc(Nc2ccc(C(=O)NCCCC(=O)NO)cc2)ncc1Cl |
| 96 | 66.3 | 94 | 70 | CC(C)S(=O)(=O)c1ccccc1Nc1nc(Nc2ccc(NC(=O)CCCCCCC(=O)NO)cc2)ncc1F |
| 98.8 | 85.2 | 31 | 8 | CC(C)S(=O)(=O)c1ccccc1Nc1nc(Nc2ccc(C(=O)NCCCCC(=O)NO)cc2)ncc1Cl |
| 97.3 | 83.2 | 84 | 35 | CC(C)S(=O)(=O)c1ccccc1Nc1nc(Nc2cccc(C(=O)NCCCCCC(=O)NO)c2)ncc1Cl |
| 97.3 | 86.7 | 3 | -1 | CC(C)S(=O)(=O)c1ccccc1Nc1nc(Nc2ccc(C(=O)NCCC(=O)NO)cc2)ncc1Cl |
|  | 81.1 |  | 0.1 | CC(C)S(=O)(=O)c1ccccc1Nc1nc(Nc2ccc(C(=O)NO)cc2)ncc1Cl |
| 97.9 | 83.5 | 93 | 63 | Cc1cnc(Nc2ccc(NC(=O)CCCCCCC(=O)NO)cc2)nc1Nc1ccccc1S(=O)(=O)C(C)C |
| 101 | 71.6 | 3 | 0 | CC(C)S(=O)(=O)c1ccccc1Nc1nc(Nc2ccc(/C=C/C(=O)NO)cc2)ncc1Cl |
| 100 | 70.3 | 67 | 24 | CC(C)S(=O)(=O)c1ccccc1Nc1nc(Nc2ccc(C(=O)NCCCCCCC(=O)NO)c(Cl)c2)ncc1Cl |
| 21.2 | 3.1 | 90 | 67 | O=C(CCCCCCC(=O)Nc1ccc(Nc2ncc(Cl)c(Nc3ccccc3Cl)n2)cc1)NO |
| 98.5 | 86.8 | 49 | 7 | Cc1c(Nc2ncc(Cl)c(Nc3ccccc3S(=O)(=O)C(C)C)n2)cccc1C(=O)NCCCCCC(=O)NO |
| 98.8 | 86.5 | 90 | 52 | CC(C)S(=O)(=O)c1ccccc1Nc1nc(Nc2ccc(NC(=O)CCCCCC(=O)NO)cc2)ncc1Cl |
| 7.6 | 4.9 | 89 | 56 | COc1cccc(Nc2nc(Nc3ccc(NC(=O)CCCCCCC(=O)NO)cc3)ncc2C(F)(F)F)c1 |
